Measurements from the NIST ThermoML archive (doi:10.1016/j.jct.2019.03.032).
± gives the expanded uncertainty stated by the source.

Conditions: Metastable liquid, Gas chromatography

Row | Structure (SMILES) | vapor or sublimation pressure (298.15 K) [kPa] | vapor or sublimation pressure (310 K) [kPa] | vapor or sublimation pressure (320 K) [kPa] | vapor or sublimation pressure (330 K) [kPa] | vapor or sublimation pressure (340 K) [kPa] | vapor or sublimation pressure (350 K) [kPa] | vapor or sublimation pressure (360 K) [kPa] | vapor or sublimation pressure (370 K) [kPa] | vapor or sublimation pressure (380 K) [kPa] | vapor or sublimation pressure (390 K) [kPa] | vapor or sublimation pressure (400 K) [kPa] | vapor or sublimation pressure (410 K) [kPa] | vapor or sublimation pressure (420 K) [kPa] | vapor or sublimation pressure (430 K) [kPa] | vapor or sublimation pressure (440 K) [kPa] | vapor or sublimation pressure (450 K) [kPa] | vapor or sublimation pressure (460 K) [kPa] | vapor or sublimation pressure (470 K) [kPa] | vapor or sublimation pressure (480 K) [kPa] | vapor or sublimation pressure (490 K) [kPa] | also measured
1 | CC(C)CCCC(C)CCCC(C)CCCCC(C)CCCC(C)CCCC(C)C (centres undefined) [2,6,10,15,19,23-hexamethyltetracosane] | 1.5e-09 | 1.2e-08 | 5.9e-08 | 2.6e-07 | 1e-06 ± 4e-07 | 3.5e-06 ± 1.4e-06 | 1.1e-05 ± 4e-06 | 3.4e-05 ± 1.2e-05 | 9.2e-05 ± 7e-06 | 0.00024 ± 6e-05 | 0.00057 ± 0.00015 | 0.0013 ± 0.0002 | 0.0028 ± 0.0006 | 0.0059 ± 0.0011 | 0.012 ± 0.002 | 0.022 ± 0.004 | 0.04 ± 0.005 | 0.071 ± 0.009 | 0.121 ± 0.015 | 0.2 ± 0.021 | vapor or sublimation pressure (500 K): 0.32 ± 0.032 kPa; vapor or sublimation pressure (510 K): 0.51 ± 0.046 kPa; vapor or sublimation pressure (520 K): 0.78 ± 0.065 kPa; vapor or sublimation pressure (530 K): 1.2 ± 0.095 kPa; vapor or sublimation pressure (540 K): 1.7 ± 0.13 kPa; vapor or sublimation pressure (550 K): 2.5 ± 0.19 kPa; vapor or sublimation pressure (560 K): 3.5 ± 0.27 kPa; vapor or sublimation pressure (570 K): 4.8 ± 0.37 kPa; vapor or sublimation pressure (580 K): 6.6 ± 0.51 kPa; vapor or sublimation pressure (590 K): 8.9 ± 0.69 kPa; vapor or sublimation pressure (600 K): 12 ± 0.93 kPa; vapor or sublimation pressure (686.4 K): 101.33 ± 10 kPa
2 | CC(C)=CCC/C(C)=C/CC/C(C)=C/CC/C=C(\C)CC/C=C(\C)CCC=C(C)C | 3.7e-10 | 3.1e-09 | 1.6e-08 | 7.5e-08 | 3.1e-07 ± 1.4e-07 | 1.2e-06 | 3.9e-06 ± 1.6e-06 | 1.2e-05 ± 4e-06 | 3.5e-05 ± 1.2e-05 | 9.3e-05 ± 7e-06 | 0.00023 ± 6e-05 | 0.00055 ± 0.00015 | 0.0012 ± 0.0002 | 0.0026 ± 0.0004 | 0.0053 ± 0.0009 | 0.01 ± 0.002 | 0.019 ± 0.002 | 0.035 ± 0.005 | 0.061 ± 0.007 | 0.1 ± 0.011 | vapor or sublimation pressure (500 K): 0.17 ± 0.017 kPa; vapor or sublimation pressure (510 K): 0.27 ± 0.025 kPa; vapor or sublimation pressure (520 K): 0.42 ± 0.036 kPa; vapor or sublimation pressure (530 K): 0.63 ± 0.052 kPa; vapor or sublimation pressure (540 K): 0.94 ± 0.073 kPa; vapor or sublimation pressure (550 K): 1.4 ± 0.11 kPa; vapor or sublimation pressure (560 K): 2 ± 0.15 kPa; vapor or sublimation pressure (570 K): 2.8 ± 0.22 kPa; vapor or sublimation pressure (580 K): 3.8 ± 0.29 kPa; vapor or sublimation pressure (590 K): 5.1 ± 0.4 kPa; vapor or sublimation pressure (600 K): 6.9 ± 0.54 kPa; vapor or sublimation pressure (709.1 K): 101.33 ± 10 kPa
